Results on 21 compounds are retold here after PubChem BioAssay (NCI).

Some test systems named below: NCI-H460 lung; NCI-H23 lung; MALME-3M melanoma; OVCAR-4 ovarian; SF-268 CNS; OVCAR-3 ovarian; BT-549 breast; HOP-62 NSCLC; NCI/ADR-RES ovarian.
Assay in all cases: inhibition of tumour cell growth, NCI panel, 48 h

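Assay format: 96-well plates, 48-hour exposure. GI50 = concentration required for 50% inhibition of growth. Definition used: TGI = concentration required for complete inhibition of growth.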 A value given as a limit tells only on which side of the number the result lay.

With `COc1cc(OC)cc(-c2n/c(=C\c3c(O)[nH]c4ccc(Cl)cc34)cc3c2=Nc2ccccc2-3)c1`, the GI50 was 3.26 µM with NCI-H460 lung; 2340 nM in the test with NCI-H23 lung; 21.6 µM in the test on MALME-3M melanoma; 1.76 µM in the test on OVCAR-4 ovarian; 3.35 µM with SF-268 CNS; 2460 nM in the test on OVCAR-3 ovarian. Further, the GI50 was 3 µM in the test on BT-549 breast, 1990 nM in the test on HOP-62 NSCLC and 3.03 µM in the test with NCI/ADR-RES ovarian. In addition, the TGI in the test with NCI-H460 lung came to 10.5 µM; in the test with NCI-H23 lung it was 6.06 µM; in the test with MALME-3M melanoma, 44.7 µM; in the test on OVCAR-4 ovarian, 3.77 µM; with SF-268 CNS it was 11.4 µM; in the test with OVCAR-3 ovarian, 5.22 µM. In addition, the TGI in the test with BT-549 breast was 9.75 µM; in the test with HOP-62 NSCLC, 3.99 µM; in the test on NCI/ADR-RES ovarian it was 10.8 µM.

In the case of `COc1cc(C(c2cccc3ccccc23)N2C(=O)CCC2C(=O)NCc2ccccc2)cc(OC)c1OC` (centres undefined), the TGI with NCI-H460 lung, with NCI-H23 lung, with MALME-3M melanoma, in the test with OVCAR-4 ovarian, with SF-268 CNS and in the test with OVCAR-3 ovarian was greater than 100 µM in each case. Moreover, the TGI in the test on BT-549 breast, in the test with HOP-62 NSCLC and with NCI/ADR-RES ovarian was greater than 100 µM in each case.

Consider `OC(CCN1CCN(CCOC(c2ccccc2)c2ccccc2)CC1)c1ccc(Br)cc1` (centres undefined), for which the TGI stood at 26 µM with NCI-H460 lung; 28 µM in the test with NCI-H23 lung; 24.4 µM in the test on MALME-3M melanoma; 38.6 µM in the test with OVCAR-4 ovarian; 30.3 µM in the test with SF-268 CNS; 28 µM with OVCAR-3 ovarian. In addition, the TGI in the test on BT-549 breast turned out to be 26.1 µM; with HOP-62 NSCLC, 32 µM; with NCI/ADR-RES ovarian, 21.9 µM.

In the case of `COc1ccc2c(c1)CC1Cc3ccccc3CCN1C2` (centres undefined), the TGI with NCI-H460 lung, in the test with NCI-H23 lung, with MALME-3M melanoma, in the test on OVCAR-4 ovarian, with SF-268 CNS and in the test on OVCAR-3 ovarian was greater than 100 µM throughout. Further, the TGI in the test on BT-549 breast, with HOP-62 NSCLC and in the test with NCI/ADR-RES ovarian was greater than 100 µM throughout.

For `Nc1ccc(-c2nc3ccc(F)cc3s2)cc1`, the figures for the GI50 in the test on NCI-H460 lung and in the test with OVCAR-4 ovarian were 24.4 µM and 23.1 µM, respectively. The TGI in the test with NCI-H460 lung was greater than 100 µM; in the test with NCI-H23 lung, greater than 100 µM; in the test with MALME-3M melanoma, greater than 100 µM; in the test on OVCAR-4 ovarian it was greater than 100 µM; in the test with SF-268 CNS, greater than 100 µM; in the test with OVCAR-3 ovarian, 64.4 µM. For the same compound, the figures for the TGI in the test with BT-549 breast, with HOP-62 NSCLC and in the test on NCI/ADR-RES ovarian were greater than 100 µM, 90.8 µM and greater than 100 µM, respectively.

For the compound `CN(CCc1ccc(Cl)c(Cl)c1)CCN(C)CCN1CCCC1`, the TGI with NCI-H460 lung is 25.7 µM; with NCI-H23 lung, 38.3 µM; in the test on MALME-3M melanoma, 15 µM; with OVCAR-4 ovarian, greater than 100 µM; in the test with SF-268 CNS it was 29.8 µM; in the test with OVCAR-3 ovarian it was 70.4 µM. Moreover, the values for the TGI with BT-549 breast, with HOP-62 NSCLC and with NCI/ADR-RES ovarian were 36.2 µM, 34.9 µM and greater than 72.7 µM, respectively.

As to `COc1cc(/C=C2\Cc3cc(OC)c(OC)cc3C2=O)cc(OC)c1`, the TGI in the test on NCI-H460 lung was 74.7 µM; in the test on NCI-H23 lung it was greater than 56.9 µM; in the test on MALME-3M melanoma it was greater than 100 µM; in the test on OVCAR-4 ovarian, greater than 88.7 µM; with SF-268 CNS it was greater than 100 µM; in the test on OVCAR-3 ovarian, greater than 100 µM. The results for the TGI with BT-549 breast, with HOP-62 NSCLC and in the test with NCI/ADR-RES ovarian were 69.3 µM, greater than 80.1 µM and greater than 100 µM, respectively.

Turning to `CC(C)(C)c1cc(C(=O)/C=C/c2ccn[nH]2)cc(C(C)(C)C)c1O`, the TGI was 8.6 µM in the test with NCI-H460 lung; 7.38 µM in the test on NCI-H23 lung; 20.2 µM in the test with MALME-3M melanoma; 18 µM in the test with OVCAR-4 ovarian; 6.39 µM in the test with SF-268 CNS; 7.39 µM with OVCAR-3 ovarian. In addition, the TGI was determined as 17 µM with BT-549 breast, 9.52 µM in the test on HOP-62 NSCLC and 16.1 µM in the test on NCI/ADR-RES ovarian.

As to `c1csc(-c2csc(-c3ccsc3)c2)c1`, the TGI in the test on NCI-H460 lung, with NCI-H23 lung, in the test with MALME-3M melanoma, in the test on OVCAR-4 ovarian, with SF-268 CNS and in the test with OVCAR-3 ovarian was greater than 100 µM each time. The TGI in the test on BT-549 breast, in the test on HOP-62 NSCLC and in the test on NCI/ADR-RES ovarian was greater than 100 µM each time.

Consider `CNC(=S)N/N=C(\C)c1nc2ncccc2[nH]1`, for which the TGI in the test on NCI-H460 lung was greater than 100 µM; with MALME-3M melanoma it was greater than 100 µM; with OVCAR-4 ovarian, greater than 100 µM; in the test on SF-268 CNS, greater than 100 µM; with OVCAR-3 ovarian, 75.5 µM; with BT-549 breast it was 99.5 µM. The results for the TGI in the test on HOP-62 NSCLC and in the test on NCI/ADR-RES ovarian were greater than 100 µM and 29.7 µM, respectively.

Take `N=C(N)SCCCN`: the TGI with NCI-H460 lung was 15.8 µM; in the test with NCI-H23 lung it was 41.2 µM; with MALME-3M melanoma, 29.1 µM; in the test on OVCAR-4 ovarian, greater than 30.9 µM; in the test with SF-268 CNS, 79.2 µM; in the test on OVCAR-3 ovarian it was 30.5 µM. The TGI in the test on BT-549 breast is greater than 60.9 µM; in the test with HOP-62 NSCLC, 35.7 µM; in the test on NCI/ADR-RES ovarian, greater than 62.1 µM.

As to `[N-]=[N+]=NC[C@H]1OCO[C@H](CN=[N+]=[N-])[C@H]2OCCOCCOc3ccccc3OCCOCCO[C@@H]21`, the TGI in the test on NCI-H460 lung, with NCI-H23 lung, in the test with MALME-3M melanoma, with OVCAR-4 ovarian, with SF-268 CNS and in the test on OVCAR-3 ovarian was greater than 100 µM in each case. Also, the TGI in the test with BT-549 breast, in the test on HOP-62 NSCLC and in the test on NCI/ADR-RES ovarian was greater than 100 µM throughout.

Regarding `N#Cc1c(Nc2nc3ccccc3s2)c2ccccc2n2c1nc1ccccc12`, the TGI in the test with NCI-H460 lung, in the test on NCI-H23 lung, with MALME-3M melanoma, in the test with OVCAR-4 ovarian, in the test with SF-268 CNS and in the test with OVCAR-3 ovarian was greater than 100 µM in each case. Further, the TGI with BT-549 breast, in the test on HOP-62 NSCLC and in the test on NCI/ADR-RES ovarian was greater than 100 µM in each case.

As to `Cc1ccc(S(=O)(=O)c2ccc([N+](=O)[O-])o2)cc1`, the TGI was 33.4 µM in the test with NCI-H460 lung; 13 µM in the test on NCI-H23 lung; 2.64 µM in the test on MALME-3M melanoma; greater than 22 µM in the test on OVCAR-4 ovarian; 46.6 µM with SF-268 CNS; 3.71 µM with OVCAR-3 ovarian. Further, the TGI in the test on BT-549 breast came to 6.16 µM; in the test with HOP-62 NSCLC it was 38.1 µM; in the test with NCI/ADR-RES ovarian, 5.36 µM.

In the case of `COc1ccc2c(-c3ccc(OCCN(C)C)cc3)c(Oc3ccc(Cl)cc3)c(=O)oc2c1`, the TGI was greater than 42.4 µM in the test with NCI-H460 lung; greater than 54.2 µM in the test on NCI-H23 lung; 3.48 µM in the test on MALME-3M melanoma; greater than 95.7 µM with OVCAR-4 ovarian; 32.9 µM in the test on SF-268 CNS; 21 µM in the test on OVCAR-3 ovarian. Further, the values for the TGI with BT-549 breast, with HOP-62 NSCLC and with NCI/ADR-RES ovarian were 37.6 µM, greater than 100 µM and greater than 62.5 µM, respectively.

With `CSCCCNC(=O)c1csc(-c2csc(CCNC(=O)CNC(=O)CNC(=O)CNC(=O)OC(C)(C)C)n2)n1`, the TGI with NCI-H460 lung, in the test with NCI-H23 lung, in the test with MALME-3M melanoma, in the test with OVCAR-4 ovarian, with SF-268 CNS and in the test with OVCAR-3 ovarian was greater than 100 µM in each case. Further, the TGI in the test with BT-549 breast, in the test with HOP-62 NSCLC and in the test on NCI/ADR-RES ovarian was greater than 100 µM each time.

As for `CC(C)(C)OC(=O)NCC(=O)NC1C/C(=N\O)c2sccc21` (centres undefined), the TGI with NCI-H460 lung, with NCI-H23 lung, with MALME-3M melanoma, with OVCAR-4 ovarian, with SF-268 CNS and in the test with OVCAR-3 ovarian was greater than 100 µM in each case. The TGI with BT-549 breast, with HOP-62 NSCLC and in the test with NCI/ADR-RES ovarian was greater than 100 µM in each case.

For the compound `Cc1nn(C(=O)c2ccncc2)c2c1C(c1cccc([N+](=O)[O-])c1)SC(N)=N2` (centres undefined), the TGI in the test with NCI-H460 lung, in the test on NCI-H23 lung, in the test with MALME-3M melanoma, in the test with OVCAR-4 ovarian, in the test with SF-268 CNS and in the test on OVCAR-3 ovarian was greater than 10 µM each time. In addition, the TGI in the test with BT-549 breast, with HOP-62 NSCLC and in the test on NCI/ADR-RES ovarian was greater than 10 µM in each case.

On to `Cc1cc(C)c2c(=N)c3ccccc3n(CCCCCCO)c2n1`, for which the TGI was 3.62 µM in the test with NCI-H460 lung; 6.69 µM with NCI-H23 lung; 5.95 µM in the test on MALME-3M melanoma; 9.85 µM with OVCAR-4 ovarian; 13.9 µM with SF-268 CNS; 25.9 µM in the test with OVCAR-3 ovarian. The TGI in the test on BT-549 breast was determined as 23.7 µM; with HOP-62 NSCLC, 23.6 µM; with NCI/ADR-RES ovarian it was 8.38 µM.

As to `CC1(C)CCCCCCCCCC(C)(CCCCCCCCCCCCO)C1=O` (centres undefined), the TGI with NCI-H460 lung turned out to be 33.4 µM; with NCI-H23 lung, 33.7 µM; in the test with MALME-3M melanoma, 30.6 µM; in the test with OVCAR-4 ovarian, 32.7 µM; in the test with SF-268 CNS, 32 µM; in the test on OVCAR-3 ovarian it was 29.4 µM. Moreover, the TGI with BT-549 breast is 30.4 µM; in the test with HOP-62 NSCLC, 47.5 µM; with NCI/ADR-RES ovarian, 32.6 µM.

In the case of `Cc1cc(O)ccc1C1(c2ccc(F)cc2)OC(=O)c2ccccc21` (centres undefined), the TGI in the test with NCI-H460 lung worked out at 29 µM; in the test with NCI-H23 lung, 3.27 µM; with MALME-3M melanoma it was 26.8 µM; in the test with OVCAR-4 ovarian it was 1.08 µM; with SF-268 CNS, 39.7 µM; in the test with OVCAR-3 ovarian it was 0.882 µM. Besides, the TGI in the test with BT-549 breast is 0.653 µM; with HOP-62 NSCLC, 19.7 µM; in the test with NCI/ADR-RES ovarian, 2.25 µM.
